From patent US20220030850A1, “CRYOPRESERVATIVE COMPOSITIONS AND METHODS” (REGENTS OF THE UNIVERSITY OF MINNESOTA, priority 2015, published 2022)

Assays:
[1] = system: MSCs (CD73, CD90, CD105, CD45); test: Surface marker characterization by flow cytometry; assay type: cell-based, human; details: frozen MSCs
Text: Cells were suspended to a concentration of 1×10^6 cells/ml in media and stained with a panel of the following antibodies: mouse IgG1 anti-human CD73 (APC-conjugated, BD Biosciences, San Jose, Calif., clone AD2), mouse IgG1 anti-human CD90 (FITC-conjugate, clone 5E10, Molecular Probes, Eugene, Oreg.), mouse IgG1 anti-human CD105 (PE-conjugated, R&D Systems, Inc., Minneapolis, Minn. clone 166707) and mouse IgG1 anti-human CD45 (BV421-conjugated, clone HI30, BD Biosciences, San Jose, Calif.). Cells were incubated with antibodies for 30 minutes at 4° C. Flow cytometry was performed on a flow cytometer (LSR II, BD Biosciences, San Jose, Calif.) at low flow rate with the fine adjust knob five turns from max. At least 15,000 events were recorded for each sample. Cell populations were gated for forward and side scatter compared to unstained MSCs and CD45 expressing Jurkat cells as, respectively, negative and positive controls to establish boundaries for fluorescent signals.

[2] = system: H9-MSCs; test: MSC vial freezing, post-thaw recovery and two-hour attachment (Example 5); assay type: cell-based, human; details: DMSO, room temperature pre-freeze incubation; 1° C./min; FIG. 21C
Procedure: Optimized solutions were prepared at double (2×) the final freezing concentration and added stepwise to cells in NORMOSOL-R (Hospira, Inc., Lake Forest, Ill.) at a 1:1 final volume ratio in a freezing vial (NALGENE, Nalge Nunc, Penfield, N.Y.). Control cells in media were similarly combined stepwise with DMSO at a 1:1 final volume ratio. Each of these vials was incubated at room temperature for 0 hours, one hour, or two hours. Experimental solutions were frozen using a 3° C./min cooling rate protocol described below, while DMSO solutions were frozen using a 1° C./min cooling rate protocol on a controlled rate freezer (Kryo 10 Series III, Planer PLC, Middlesex, United Kingdom). […]
Samples were submerged in a 37° C. bath to just under cap level, and agitated until only a small ice crystal was present. The cells were combined with acridine orange/propidium iodide (AO/PI) and counted using a hemocytometer. […]
Cell attachment of samples post-thaw was measured using a fluorescent plate reader. […] After two hours or 24 hours, these paired plates were washed with PBS, 1 μM calcein-acetoxymethyl (AM) dye was added, and then analyzed for fluorescence on a plate reader. Raw fluorescence values were used to calculate the number of live cells present in each well by correlating to a control curve of cells seeded at known densities. […]

[3] = system: H9-MSCs; test: Gene expression by qRT-PCR immediately post-thaw; assay type: cell-based, human; details: GAPDH internal control, FIG. 23
Procedure: Certain genes within select gene categories were analyzed using qRT-PCR. H9-MSCs subjected to different freezing approaches were assayed immediately post-thaw for the expression of genes related to trophic factor secretion such as HGF, VEGF, FGF2, CXCL12 (SDF-1α), mesodermal lineage markers TWIST1, TWIST2 (DERMO1), MSX2, the anti-apoptotic marker BCL2, surface markers for cell adhesion such as CD106 and CD54, the osmotic regulator marker GAL-1, and stress-response markers such as EGR1 and NFE2L2 (NRF2).
Pellets of thawed samples described above were resuspended in QIAZOL lysis agent (Qiagen, Hilden, Germany) for further RNA isolation and processing. […] The purified RNA was quantified using a NANODROP 2000 (Therm Fisher Scientific, Waltham, Mass.) device to determine concentration.
For qRT-PCR studies, 800 ng of RNA was used for reverse transcription to make cDNA using SuperScript III First-Strand Synthesis System (Thermo Fisher Scientific, Waltham, Mass.). cDNA was diluted to a concentration of 4 ng/μl and real-time qPCR was performed with 10 ng cDNA per 10 μl reaction with QuantiTect SYBR Green PCR Kit (Qiagen, Hilden, Germany) on CFX384 Real-Time PCR detection system (Bio-Rad Laboratories, Inc., Hercules, Calif.). […] were analyzed using the comparative CT method (Schmittgen et al., 2008. Nat Protoc 3:1101-1108) with GAPDH as an internal control gene.

[4] = 10% DMSO solution; cited from earlier work
[5] = system: Jurkat cells; test: Raman microscopy cell penetration study of cryoprotectants; assay type: cell-based; details: Raman microscopy, at room temperature and at freezing temperatures
Procedure: Raman microscopy data provides an indication of the location of action of each cryopreservative. The images in FIG. 12 show Jurkat cells frozen in either glycerol (penetrating) or trehalose (non-penetrating).
These experiments were performed for most of the components described in the sections above both at room temperature and at freezing temperatures to assess whether penetration was temperature dependent.
Confocal Raman Microspectroscopy (CRM) measurements are conducted using Witec Confocal Raman Microscope System Alpha 300R (WITec, Wissenschaftliche Instrumente und Technologie GmbH, Ulm, Germany) with UHTS300 spectrometer and DV401 CCD detector. A wavelength of 532 nm Nd:YAG laser and 10 mW of power is used as excitation source. The laser is transferred to the microscopy in a singer fiber. A 100× air objective (NA 0.90; Nikon Instruments, Melville, N.Y.) is used for focusing the 532 nm excitation laser to the sample. Data collection and analysis are performed by Windows-based WitecControl_1.38 software.

SMILES | expression of negative surface marker CD45 [1] | expression of positive surface markers CD73, CD90, CD105 [1] | attachment of cells, effect of incubation prior to freezing [2] | cell recovery, effect of incubation prior to freezing [2] | CXCL12 expression [3] | TWIST2 expression [3] | osmolarity [4] | Penetration [5]
C[S+](C)[O-] [DMSO, dimethyl sulfoxide] | < 1% | > 99% | significantly reduced | did not alter | notable change | elevated | ~1400 mOsm | 
OC[C@H]1O[C@@](CO)(O[C@H]2O[C@H](CO)[C@@H](O)[C@H](O)[C@H]2O)[C@@H](O)[C@@H]1O [Sucrose] |  |  |  |  |  |  |  | Yes
